Results on 23 compounds are retold here after patent publication US11964950B2, “Arylamide derivative having antitumor activity” (priority 2020, dated 2024).

For series [1], the system named is A549 human lung cancer cells. Put plainly: Cell proliferation-inhibiting activity, A549 (CellTiter-Glo, ATP in viable cells). It is filed as cell-based. The conditions noted are these: A549, 96 h, Table 3, 4 days culture. The protocol:
(§1) The cell proliferation-inhibiting activity of the compounds listed in Table 3 below was evaluated by measuring the amount of ATP in viable cells as described below.
(§2) The test compound was serially diluted with DMSO and then diluted 25-fold with Ca^2+, Mg^2+-free phosphate-buffered saline, and was then dispensed into a 96-well plate at 5 μL per well. A cell suspension containing the below indicated concentration of A549, Calu-6 or NCI-H2122 human lung cancer cells (all obtained from ATCC) was prepared using the below indicated medium with the addition of 10% fetal bovine serum (Sigma). The cell suspension was dispensed into the test compound-added plate at 95 μL per well and cultured in a 5% carbon dioxide gas incubator at 37° C. After 4 days, 80 μL of CellTiter-Glo (registered trademark) (Promega Corp.) was added to each well and the bioluminescence was measured with a fluorescent plate reader.
A549: Dulbecco's Modified Eagle's Medium (Sigma); 2000 cells/95 μL

Series [2] can be described thus: Human liver microsome stability. It is filed as in vitro ADME. The conditions noted are these: NADPH, 37° C.; for microsomal CLint at 0.99 µM: human liver microsomes (XENOTECH), pH 7.4, hepatic intrinsic clearance; for CLint: hepatic intrinsic clearance, human liver microsomes. The protocol:
There were dispensed 400 μL of 1 mg/mL human liver microsomes (XENOTECH)/0.1 M potassium phosphate buffer (pH 7.4) into each well of a 96-well plate. A DMSO solution (4 μL) of 200 μM test compound was then added, and incubation was conducted until reaching 37° C. To this reaction mixture (200 μL) there was added a solution (200 μL) containing 2 mM NADPH (ORIENTAL YEAST)/0.1 M potassium phosphate buffer (pH 7.4) that had been incubated at 37° C. At 0 min, 5 min, 15 min or 30 min after addition, the reaction mixture (50 μL) was added to acetonitrile (100 μL) to stop the metabolic reaction. After the metabolic reaction was stopped, a 1 μM warfarin aqueous solution (50 μL) was added to each reaction mixture as an internal standard. The reaction mixture was filtered and analyzed by LC/MS/MS (LC: NEXERA by Shimadzu; MS: 4000Q trap by ABSciex; column: Ascentis Express C18 HPLC column (5 cm×2.1 mm, 2.7 μm); ionization method: electrospray ionization). The percent remaining relative to the amount of test compound at 0 min was calculated from the obtained peak area ratio of the test compound to internal standard. The elimination rate constant (ke) was calculated from the incubation time and percent remaining using the primary elimination rate equation, and the hepatic intrinsic clearance (CLint) was calculated using the formula shown below. CLint (μL/min/mg)=ke (min^−1)/human liver microsome concentration (mg protein/μL)

The subject of series [3] is Calu-6 human lung cancer cells. Put plainly: Cell proliferation-inhibiting activity, Calu-6 (CellTiter-Glo, ATP in viable cells). It is filed as cell-based. The conditions noted are these: Calu-6, 96 h, Table 3, 4 days culture. The method, then: as §1, §2
Calu-6: Eagle's Minimum Essential Medium (Sigma); 4000 cells/95 μL

The test system of series [4] is NCI-H2122 human lung cancer cells. Put plainly: Cell proliferation-inhibiting activity, NCI-H2122 (CellTiter-Glo, ATP in viable cells). It is filed as cell-based. The conditions noted are these: NCI-H2122, 96 h, Table 3, 4 days culture. The method, then: as §1, §2

SMILES strings stand for the structures. pIC50: −log10 of the molar value.

`COCCNS(=O)(=O)Nc1nccc(Cc2cc(C(N)=O)c(Nc3ccc(I)cc3F)cc2F)c1F` [1-4, 4-Fluoro-2-(2-fluoro-4-iodoanilino)-5-[[3-fluoro-2-(2-methoxyethylsulfamoylamino)pyridin-4-yl]methyl]benzamide] had a pIC50 in series [1] of 6.35.

In series [2], `COCC1(NS(=O)(=O)Nc2nccc(Cc3cc(C(N)=O)c(Nc4ccc(I)cc4F)c(F)c3F)c2F)CC1` [A-16, 3,4-Difluoro-2-(2-fluoro-4-iodoanilino)-5-[[3-fluoro-2-[[1-(methoxymethyl)cyclopropyl]sulfamoylamino]pyridin-4-yl]methyl]benzamide] yielded a microsomal CLint at 0.99 µM of 47 µL/min/mg.

Consider `CC1(NS(=O)(=O)Nc2nccc(Cc3cc(C(N)=O)c(Nc4ccc(I)cc4F)c(F)c3F)c2F)CC1` [A-23, 3,4-Difluoro-2-(2-fluoro-4-iodoanilino)-5-[[3-fluoro-2-[(1-methylcyclopropyl)sulfamoylamino]pyridin-4-yl]methyl]benzamide], for which the “CLint” value in series [2] was less than 1 µL/min/mg.

With `CNS(=O)(=O)Nc1cccc(Cc2cc(C(=O)NC3CC3)c(Nc3ccc(C4CC4)cc3F)c(F)c2F)c1F` [D-15, N-Cyclopropyl-2-(4-cyclopropyl-2-fluoroanilino)-3,4-difluoro-5-[[2-fluoro-3-(methylsulfamoylamino)phenyl]methyl]benzamide], the pIC50 is 6.93 in series [3] and 7.96 in series [4].

`COCC1(S(=O)(=O)Nc2cccc(Cc3cc(C(=O)NOC)c(Nc4ccc(I)cc4F)c(F)c3F)c2F)CC1` [E-3, 3,4-Difluoro-2-(2-fluoro-4-iodoanilino)-5-[[2-fluoro-3-[[1-(methoxymethyl)cyclopropyl]sulfonylamino]phenyl]methyl]-N-methoxybenzamide] returned a microsomal CLint at 0.99 µM in series [2] of 149 µL/min/mg.

In series [2], `CS(=O)(=O)Nc1cccc(Cc2cc(C(N)=O)c(Nc3ccc(I)cc3F)c(F)c2F)c1F` [E-13, 3,4-difluoro-2-(2-fluoro-4-iodoanilino)-5-[[2-fluoro-3-(methanesulfonamide)phenyl]methyl]benzamide] registered a microsomal CLint at 0.99 µM of 25 µL/min/mg.

`CC1(S(=O)(=O)Nc2cccc(Cc3cc(C(N)=O)c(Nc4ccc(I)cc4F)c(F)c3F)c2F)CC1` [E-16, 3,4-Difluoro-2-(2-fluoro-4-iodoanilino)-5-[[2-fluoro-3-[(1-methylcyclopropyl)sulfonylamino]phenyl]methyl]benzamide]: in series [2], the “CLint” value is less than 1 µL/min/mg.

`CS(=O)(=O)Nc1cccc(Cc2cc(C(=O)NC3CC3)c(Nc3ccc(I)cc3F)c(F)c2F)c1F` [E-25, N-Cyclopropyl-3,4-difluoro-2-(2-fluoro-4-iodoanilino)-5-[[2-fluoro-3-(methanesulfonamide)phenyl]methyl]benzamide] displayed a microsomal CLint at 0.99 µM in series [2] of 8 µL/min/mg.

Turning to `CNS(=O)(=O)Nc1nccc(Cc2cc(C(N)=O)c(Nc3ccc4sccc4c3F)c(F)c2F)c1F` [H-3, 3,4-difluoro-2-[(4-fluoro-1-benzothiophen-5-yl)amino]-5-[[3-fluoro-2-(methylsulfamoylamino)pyridin-4-yl]methyl]benzamide], the pIC50 is 8.30 in series [1] and 9.00 in series [4].

For the compound `COCCNS(=O)(=O)Nc1nccc(Cc2cc(C(N)=O)c(Nc3ccc(I)cc3F)n(C)c2=O)c1F` [J-2, 2-(2-Fluoro-4-iodoanilino)-5-[[3-fluoro-2-(2-methoxyethylsulfamoylamino)pyridin-4-yl]methyl]-1-methyl-6-oxopyridine-3-carboxamide], the pIC50 in series [1] was 6.45.

`COCCNS(=O)(=O)Nc1nccc(Cc2cc(C(=O)NC3CC3)c(Nc3ccc(I)cc3F)n(C)c2=O)c1F` [J-7, N-Cyclopropyl-2-(2-fluoro-4-iodoanilino)-5-[[3-fluoro-2-(2-methoxyethylsulfamoylamino)pyridin-4-yl]methyl]-1-methyl-6-oxopyridine-3-carboxamide] gave a pIC50 in series [1] of 7.00.

As for `COCCNS(=O)(=O)Nc1nccc(Cc2cc(C(=O)NOC)c(Nc3ccc(I)cc3F)n(C)c2=O)c1F` [J-9, 2-(2-Fluoro-4-iodoanilino)-5-[[3-fluoro-2-(2-methoxyethylsulfamoylamino)pyridin-4-yl]methyl]-N-methoxy-1-methyl-6-oxopyridine-3-carboxamide], the pIC50 in series [1] is 6.78; in series [3] it was 6.63.

With `CCS(=O)(=O)Nc1cc(Cc2cc(C(N)=O)c(Nc3ccc(I)cc3F)n(C)c2=O)ccn1` [J-12, 5-[[2-(Ethylsulfonylamino)pyridin-4-yl]methyl]-2-(2-fluoro-4-iodoanilino)-1-methyl-6-oxopyridine-3-carboxamide], the pIC50 in series [1] was 6.65; in series [3] it was 6.33.

With `Cn1c(Nc2ccc(I)cc2F)c(C(N)=O)cc(Cc2ccnc(NS(=O)(=O)NC3CC3)c2F)c1=O` [J-13, 5-[[2-(Cyclopropylsulfamoylamino)-3-fluoropyridin-4-yl]methyl]-2-(2-fluoro-4-iodoanilino)-1-methyl-6-oxopyridine-3-carboxamide], the negative logarithm of the IC50 (pIC50) in series [1] is 6.71; in series [3] it was 6.55.

For the compound `CCNS(=O)(=O)Nc1nccc(Cc2cc(C(N)=O)c(Nc3ccc(I)cc3F)n(C)c2=O)c1F` [J-14, 5-[[2-(ethylsulfamoylamino)-3-fluoropyridin-4-yl]methyl]-2-(2-fluoro-4-iodoanilino)-1-methyl-6-oxopyridine-3-carboxamide], the pIC50 is 6.92 in series [1] and 6.91 in series [3].

With `Cn1c(Nc2ccc(I)cc2F)c(C(N)=O)cc(Cc2ccnc(NS(=O)(=O)NC3(C)CCC3)c2F)c1=O` [J-15, 2-(2-Fluoro-4-iodoanilino)-5-[[3-fluoro-2-[(1-methylcyclobutyl)sulfamoylamino]pyridin-4-yl]methyl]-1-methyl-6-oxopyridine-3-carboxamide], the negative logarithm of the IC50 (pIC50) in series [3] was 6.55.

As to `CCS(=O)(=O)Nc1cccc(Cc2cc(C(=O)NC3CC3)c(Nc3ccc(I)cc3F)n(C)c2=O)c1F` [K-8, N-Cyclopropyl-5-[[3-(ethylsulfonylamino)-2-fluorophenyl]methyl]-2-(2-fluoro-4-iodoanilino)-1-methyl-6-oxopyridine-3-carboxamide], in series [3], the pIC50 is 6.91.

`CCS(=O)(=O)Nc1cccc(Cc2cc(C(=O)NOC(C)(C)C)c(Nc3ccc(I)cc3F)n(C)c2=O)c1F` [K-9, 5-[[3-(Ethylsulfonylamino)-2-fluorophenyl]methyl]-2-(2-fluoro-4-iodoanilino)-1-methyl-N-[(2-methylpropan-2-yl)oxy]-6-oxopyridine-3-carboxamide]: in series [2], the intrinsic clearance (microsomal CLint) at 0.99 µM came out at 185 µL/min/mg.

`CCCNS(=O)(=O)Nc1nccc(Cn2cc(C(N)=O)c(Nc3ccc(I)cc3F)c(F)c2=O)c1F` [N-2, 5-fluoro-4-(2-fluoro-4-iodoanilino)-1-[[3-fluoro-2-(propylsulfamoylamino)pyridin-4-yl]methyl]-6-oxopyridine-3-carboxamide] gave a pIC50 in series [1] of 6.71.

For `CCS(=O)(=O)Nc1nccc(Cn2cc(C(N)=O)c(Nc3ccc(I)cc3F)c(C)c2=O)c1F` [P-2, 1-[[2-(ethylsulfonylamino)-3-fluoropyridin-4-yl]methyl]-4-(2-fluoro-4-iodoanilino)-5-methyl-6-oxopyridine-3-carboxamide], the pIC50 was 6.47 in series [3] and 6.96 in series [4].

Compound `Cc1c(Nc2ccc(I)cc2F)c(C(N)=O)cn(Cc2ccnc(NS(=O)(=O)NC3(C)CCC3)c2F)c1=O` [P-3, 4-(2-Fluoro-4-iodoanilino)-1-[[3-fluoro-2-[(1-methylcyclobutyl)sulfamoylamino]pyridin-4-yl]methyl]-5-methyl-6-oxopyridine-3-carboxamide] showed a pIC50 in series [3] of 6.65.

In turn, `CCS(=O)(=O)Nc1nccc(Cn2cc(C(=O)NOC)c(Nc3ccc(I)cc3F)c(C)c2=O)c1F` [P-5, 1-[[2-(ethylsulfonylamino)-3-fluoropyridin-4-yl]methyl]-4-(2-fluoro-4-iodoanilino)-N-methoxy-5-methyl-6-oxopyridine-3-carboxamide] showed a pIC50 in series [3] of 6.35.

Consider `CNS(=O)(=O)Nc1nccc(Cc2c(C)c3ccc(Oc4ncccn4)cc3oc2=O)c1F` [Ref-5, 3-[[3-Fluoro-2-(methylsulfamoylamino)pyridin-4-yl]methyl]-4-methyl-7-pyrimidin-2-yloxychromen-2-one, reference compound], for which the “CLint” value in series [2] is less than 1 µL/min/mg.
